Source: the NIST ThermoML archive (doi:10.1021/je060271a)
Values joined by “and” are separate entries in the source; they are usually repeats but may differ in a detail not shown here. Equal values may be shown once.

Settings: 283.15 K, Liquid, Vibrating tube method

CCCCCC(=O)OCC(COC(=O)CCCCC)(COC(=O)CCCCC)COC(=O)CCCCC [pentaerythritol tetrahexanoate]
Settings	mass density
10919 kPa	1010.4 kg/m3
10934 kPa	1010.4 kg/m3
10949 kPa	1010.4 kg/m3
10966 kPa	1010.5 kg/m3
10983 kPa	1010.4 kg/m3
10998 kPa	1010.5 kg/m3
11013 kPa	1010.5 kg/m3
11028 kPa	1010.6 kg/m3
11046 kPa	1010.5 kg/m3
11060 kPa	1010.6 kg/m3
11075 kPa	1010.4 kg/m3
11093 kPa	1010.5 kg/m3
11108 kPa	1010.6 kg/m3
11126 kPa	1010.6 kg/m3
11141 kPa	1010.5 kg/m3
11157 kPa	1010.6 kg/m3
11173 kPa	1010.6 kg/m3
11191 kPa	1010.5 kg/m3
11206 kPa	1010.6 kg/m3
11221 kPa	1010.5 kg/m3
11237 kPa	1010.6 kg/m3
11256 kPa	1010.5 kg/m3
11271 kPa	1010.6 kg/m3
11289 kPa	1010.8 kg/m3
11304 kPa	1010.6 kg/m3
11320 kPa	1010.7 kg/m3
11339 kPa	1010.7 kg/m3
11355 kPa	1010.7 kg/m3
11370 kPa	1010.6 kg/m3
11387 kPa	1010.7 kg/m3
11406 kPa	1010.7 kg/m3
11422 kPa	1010.7 kg/m3
11438 kPa	1010.7 kg/m3
11457 kPa	1010.8 kg/m3
11473 kPa	1010.8 kg/m3
11492 kPa	1010.7 kg/m3
11508 kPa	1010.8 kg/m3
11524 kPa	1010.8 kg/m3
11541 kPa	1010.7 kg/m3
11560 kPa	1010.8 kg/m3
11577 kPa	1010.7 kg/m3
11593 kPa	1010.8 kg/m3
11613 kPa	1010.9 kg/m3
11630 kPa	1010.7 kg/m3
11649 kPa	1010.9 kg/m3
11682 kPa	1010.8 kg/m3
11753 kPa	1010.9 kg/m3
11773 kPa	1011 kg/m3
11790 kPa	1010.9 kg/m3
11807 kPa	1010.8 kg/m3
11828 kPa	1011 kg/m3
11844 kPa	1010.9 kg/m3
11862 kPa	1010.9 kg/m3
11899 kPa	1011 kg/m3
11916 kPa	1011 kg/m3
11936 kPa	1011.1 kg/m3
11954 kPa	1010.9 kg/m3
11971 kPa	1011 kg/m3
11988 kPa	1011.1 kg/m3
12009 kPa	1011 kg/m3
12027 kPa	1011 kg/m3
12044 kPa	1011 kg/m3
12062 kPa	1011.2 kg/m3
12082 kPa	1011.1 kg/m3
12099 kPa	1011.2 kg/m3
12119 kPa	1011.2 kg/m3
12137 kPa	1011.1 kg/m3
12154 kPa	1011.1 kg/m3
12171 kPa	1011 kg/m3
12192 kPa	1011.2 kg/m3
12209 kPa	1011.1 kg/m3
12231 kPa	1011.3 kg/m3
12249 kPa	1011.2 kg/m3
12267 kPa	1011.2 kg/m3
12290 kPa	1011.1 kg/m3
12309 kPa	1011.2 kg/m3
12310 kPa	1011.2 kg/m3
12311 kPa	1011.2 kg/m3
12312 kPa	1011.2 kg/m3 and 1011.4 kg/m3
12313 kPa	1011.1 kg/m3
12314 kPa	1011.2 kg/m3 and 1011.3 kg/m3
12315 kPa	1011.3 kg/m3
12316 kPa	1011.2 kg/m3
12317 kPa	1011.2 kg/m3
12318 kPa	1011.3 kg/m3 and 1011.2 kg/m3
12319 kPa	1011.4 kg/m3 and 1011.1 kg/m3
12320 kPa	1011.3 kg/m3 and 1011.2 kg/m3
12321 kPa	1011.2 kg/m3
12322 kPa	1011.3 kg/m3 and 1011.2 kg/m3
12323 kPa	1011.3 kg/m3 and 1011.2 kg/m3
12324 kPa	1011.3 kg/m3
12325 kPa	1011.2 kg/m3 and 1011.3 kg/m3
12326 kPa	1011.2 kg/m3 and 1011 kg/m3
12327 kPa	1011.3 kg/m3
12328 kPa	1011.2 kg/m3
12332 kPa	1011.3 kg/m3
12334 kPa	1011.3 kg/m3
12336 kPa	1011.3 kg/m3
12339 kPa	1011.4 kg/m3
12343 kPa	1011.3 kg/m3 and 1011.2 kg/m3
12348 kPa	1011.2 kg/m3
12351 kPa	1011.1 kg/m3
12354 kPa	1011.4 kg/m3
12356 kPa	1011.2 kg/m3
12359 kPa	1011.2 kg/m3
12362 kPa	1011.3 kg/m3
12363 kPa	1011.2 kg/m3
12364 kPa	1011.3 kg/m3
12366 kPa	1011.3 kg/m3
12380 kPa	1011.2 kg/m3
12399 kPa	1011.3 kg/m3
12414 kPa	1011.3 kg/m3
12431 kPa	1011.3 kg/m3
12446 kPa	1011.2 kg/m3
12461 kPa	1011.2 kg/m3
12476 kPa	1011.4 kg/m3
12494 kPa	1011.4 kg/m3
12509 kPa	1011.3 kg/m3
12527 kPa	1011.3 kg/m3
12543 kPa	1011.3 kg/m3
12558 kPa	1011.3 kg/m3
12577 kPa	1011.3 kg/m3
12592 kPa	1011.4 kg/m3
12607 kPa	1011.5 kg/m3
12622 kPa	1011.2 kg/m3
12640 kPa	1011.4 kg/m3
12656 kPa	1011.5 kg/m3
12674 kPa	1011.4 kg/m3
12689 kPa	1011.3 kg/m3
12705 kPa	1011.5 kg/m3
12723 kPa	1011.3 kg/m3
12738 kPa	1011.5 kg/m3
12754 kPa	1011.5 kg/m3
12768 kPa	1011.5 kg/m3
12786 kPa	1011.4 kg/m3
12800 kPa	1011.5 kg/m3
12814 kPa	1011.5 kg/m3
12831 kPa	1011.5 kg/m3
12845 kPa	1011.5 kg/m3
12862 kPa	1011.5 kg/m3
12875 kPa	1011.5 kg/m3
12889 kPa	1011.5 kg/m3
12903 kPa	1011.5 kg/m3
12919 kPa	1011.4 kg/m3
12933 kPa	1011.6 kg/m3
